Measured values published in patent publication US20230158005A1 (priority 2020, published 2023).
“And” between values parts separate entries of the source, which are not always exact repeats. Identical values can stand only once.

Tests used:
[1] = system: A/California/07/2009 (H1N1); assay type: cell-based, influenza A virus
[2] = system: A549 human lung carcinoma cells
[3] = system: A/Vietnam/1203/2004 (H5N1); assay type: cell-based, influenza A virus
[4] = system: A/USSR/90/1977 (H1N1); assay type: cell-based, influenza A virus
[5] = system: A/Indiana/08/2011 (H3N2); assay type: cell-based, influenza A virus
[6] = system: A/Solomon Islands/03/2006 (H1N1); assay type: cell-based, influenza A virus
[7] = system: A/Egypt/N6658/2011 (H5N1); assay type: cell-based, influenza A virus
[8] = system: A/Texas/71/2007 (H3N2); assay type: cell-based, influenza A virus
[9] = system: A/Anhui/1/2013 (H7N9); assay type: cell-based, influenza A virus
[10] = system: A/Indonesia/05/2005 (H5N1); assay type: cell-based, influenza A virus; on Virus titer, replicates 1-3: test concentration or dose not given here
[11] = system: A/Perth/16/2009 (H3N2); assay type: cell-based, influenza A virus
[12] = system: A/Fujian/413/2002 (H3N2); assay type: cell-based, influenza A virus
[13] = system: A/Alaska/140/2015 (H3N2); assay type: cell-based, influenza A virus; on Virus titer, replicates 1-3: test concentration or dose not given here
[14] = system: A/Hong Kong/156/1997 (H5N1); assay type: cell-based, influenza A virus
[15] = system: A/Minnesota/19/2011 (H1N1); assay type: cell-based, influenza A virus
[16] = system: A/New Jersey/8/1976 (H1N1); assay type: cell-based, influenza A virus
[17] = system: A/Puerto Rico/8/1934 (H1N1); assay type: cell-based, influenza A virus
[18] = system: A/New Caledonia/20/1999 (H1N1); assay type: cell-based, influenza A virus
[19] = system: A/Hawaii/15/2001 (H1N1); assay type: cell-based, influenza A virus; on Virus titer, replicates 1-3: test concentration or dose not given here
[20] = system: A/California/02/2014 (H3N2); assay type: cell-based, influenza A virus; on Virus titer, replicates 1-3: test concentration or dose not given here

## CCOC(=O)C1=C[C@@H](OC(CC)CC)[C@H](NC(C)=O)[C@@H](N)C1 [Oseltamivir, oseltamivir, reference compound]
[1]
  DIF (Difference from Control): -3.00 log10TCID50/mL
  Virus titer AVG: 2.58 log10TCID50/mL
  Virus titer, replicates 1-3: 2.75 log10TCID50/mL and 2.50 log10TCID50/mL (2×)
[2]
  % Dif (absorbance as percent relative to the vehicle control, relative viability): 83.88%
[3]
  DIF (Difference from Control): -2.75 log10TCID50/mL
  Virus titer AVG: 5.17 log10TCID50/mL
  Virus titer, replicates 1-3: 5.25 log10TCID50/mL and 5.50 log10TCID50/mL and 4.75 log10TCID50/mL
[4]
  DIF (Difference from Control): -4.33 log10TCID50/mL
  Virus titer AVG: 2.42 log10TCID50/mL
  Virus titer, replicates 1-3: 2.50 log10TCID50/mL (2×) and 2.25 log10TCID50/mL
[5]
  DIF (Difference from Control): -5.08 log10TCID50/mL
  Virus titer AVG: 3.25 log10TCID50/mL
  Virus titer, replicates 1-3: 2.75 log10TCID50/mL and 3.75 log10TCID50/mL and 3.25 log10TCID50/mL
[6]
  DIF (Difference from Control): -4.25 log10TCID50/mL
  Virus titer AVG: 3.25 log10TCID50/mL
  Virus titer, replicates 1-3: 3.75 log10TCID50/mL and 3.25 log10TCID50/mL and 2.75 log10TCID50/mL
[7]
  DIF (Difference from Control): -3.25 log10TCID50/mL
  Virus titer AVG: 2.08 log10TCID50/mL
  Virus titer, replicates 1-3: 2.25 log10TCID50/mL and 1.50 log10TCID50/mL and 2.50 log10TCID50/mL
[8]
  DIF (Difference from Control): -0.83 log10TCID50/mL
  Virus titer AVG: 4.00 log10TCID50/mL
  Virus titer, replicates 1-3: 3.50 log10TCID50/mL and 4.75 log10TCID50/mL and 3.75 log10TCID50/mL
[9]
  DIF (Difference from Control): -2.25 log10TCID50/mL
  Virus titer AVG: 1.50 log10TCID50/mL
  Virus titer, replicates 1-3: 1.50 log10TCID50/mL
[10]
  DIF (Difference from Control): -3.50 log10TCID50/mL
  Virus titer AVG: 4.58 log10TCID50/mL
  Virus titer, replicates 1-3: 4.75 log10TCID50/mL and 4.50 log10TCID50/mL (2×)
[11]
  DIF (Difference from Control): 0.00 log10TCID50/mL
  Virus titer AVG: 4.25 log10TCID50/mL
  Virus titer, replicates 1-3: 4.25 log10TCID50/mL
[12]
  DIF (Difference from Control): -0.58 log10TCID50/mL
  Virus titer AVG: 2.75 log10TCID50/mL
  Virus titer, replicates 1-3: 3.25 log10TCID50/mL and 2.50 log10TCID50/mL (2×)
[13]
  DIF (Difference from Control): -3.83 log10TCID50/mL
  Virus titer AVG: 2.92 log10TCID50/mL
  Virus titer, replicates 1-3: 2.50 log10TCID50/mL (2×) and 3.75 log10TCID50/mL
[14]
  DIF (Difference from Control): -3.08 log10TCID50/mL
  Virus titer AVG: 1.50 log10TCID50/mL
  Virus titer, replicates 1-3: 1.50 log10TCID50/mL
[15]
  DIF (Difference from Control): -7.33 log10TCID50/mL
  Virus titer AVG: 1.50 log10TCID50/mL
  Virus titer, replicates 1-3: 1.50 log10TCID50/mL
[16]
  DIF (Difference from Control): -3.58 log10TCID50/mL
  Virus titer AVG: 1.50 log10TCID50/mL
  Virus titer, replicates 1-3: 1.50 log10TCID50/mL
[17]
  DIF (Difference from Control): -2.25 log10TCID50/mL
  Virus titer AVG: 3.25 log10TCID50/mL
  Virus titer, replicates 1-3: 3.75 log10TCID50/mL and 3.25 log10TCID50/mL and 2.75 log10TCID50/mL
[18]
  DIF (Difference from Control): -5.67 log10TCID50/mL
  Virus titer AVG: 1.50 log10TCID50/mL
  Virus titer, replicates 1-3: 1.50 log10TCID50/mL
[19]
  DIF (Difference from Control): -1.92 log10TCID50/mL
  Virus titer AVG: 2.67 log10TCID50/mL
  Virus titer, replicates 1-3: 2.75 log10TCID50/mL (2×) and 2.50 log10TCID50/mL
[20]
  DIF (Difference from Control): -1.58 log10TCID50/mL
  Virus titer AVG: 4.92 log10TCID50/mL
  Virus titer, replicates 1-3: 5.25 log10TCID50/mL and 4.75 log10TCID50/mL (2×)
